# Laboratory results reported in ChEMBL document CHEMBL1201862, “PubChem BioAssay data set” (2004).
# Activity calls are given as the source filed them.
# Experiments:
# [1] = target: T1, Alkaline phosphatase, tissue-nonspecific isozyme (Homo sapiens, UniProt P05186)
# T1 sequence (P05186 whole entry): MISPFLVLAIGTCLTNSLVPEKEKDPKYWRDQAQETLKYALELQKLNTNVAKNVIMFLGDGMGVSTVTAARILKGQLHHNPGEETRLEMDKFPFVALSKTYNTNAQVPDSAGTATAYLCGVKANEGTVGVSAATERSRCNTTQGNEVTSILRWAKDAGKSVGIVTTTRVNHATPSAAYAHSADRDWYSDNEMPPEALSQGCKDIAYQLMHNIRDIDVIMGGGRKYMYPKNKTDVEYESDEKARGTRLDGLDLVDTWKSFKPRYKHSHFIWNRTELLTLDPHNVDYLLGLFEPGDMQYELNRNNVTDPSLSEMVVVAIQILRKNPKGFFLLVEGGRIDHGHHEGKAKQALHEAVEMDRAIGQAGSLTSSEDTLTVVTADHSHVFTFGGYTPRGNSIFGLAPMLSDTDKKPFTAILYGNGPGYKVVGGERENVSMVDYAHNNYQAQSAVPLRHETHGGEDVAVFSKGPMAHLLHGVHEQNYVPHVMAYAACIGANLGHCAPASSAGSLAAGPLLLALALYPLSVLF
# [2] = target: Peroxisome proliferator-activated receptor gamma/Nuclear receptor coactivator 1 (Homo sapiens, UniProt P37231); type: functional;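 also: agonist potency as compounds enhance coactivator SRC-1 recruitment to PPARgamma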
# [3] = target: Peroxisome proliferator-activated receptor gamma/Nuclear receptor coactivator 2 (Homo sapiens, UniProt P37231); type: functional;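 also: agonist potency for raising coactivator recruitment to the receptor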
# [4] = target: Peroxisome proliferator-activated receptor gamma/Nuclear receptor coactivator 3 (Homo sapiens, UniProt P37231); type: functional;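 also: agonist potency for raising coactivator recruitment to the receptor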
# [5] = target: T2, Bcl-2-like protein 10 (Homo sapiens, UniProt Q9HD36); test: Biochemical TR3 FP assay of Bcl-B inhibitor potency, EC50 (AID 1243); type: functional
# T2 sequence (Q9HD36 whole entry): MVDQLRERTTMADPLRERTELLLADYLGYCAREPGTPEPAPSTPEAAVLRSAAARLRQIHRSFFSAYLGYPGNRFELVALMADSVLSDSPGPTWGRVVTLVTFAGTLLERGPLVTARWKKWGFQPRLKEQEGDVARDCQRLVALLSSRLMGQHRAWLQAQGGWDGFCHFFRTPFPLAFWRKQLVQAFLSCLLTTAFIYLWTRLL
# [6] = target: NS3 (Hepatitis C virus, UniProt A3EZJ3); test: PubChem AID 2173; set-up: species or system Hepacivirus hominis
# [7] = target: T3, Insulin-degrading enzyme (Homo sapiens, UniProt P14735); test: Dose Response: Fluorescence polarization-based cell-based high throughput dose response assay for inhibitors of insulin-degrading enzyme (IDE). [Related pubchem assays: 434962 (Primary screen (IDE inhibitors in singlicate)), 449730 (Counterscreen (Cytotoxicity in triplicate)), 435028 (Confirmation (IDE inhibitors in triplicate)), 434984 (Summary …; type: functional
# T3 sequence (P14735 whole entry): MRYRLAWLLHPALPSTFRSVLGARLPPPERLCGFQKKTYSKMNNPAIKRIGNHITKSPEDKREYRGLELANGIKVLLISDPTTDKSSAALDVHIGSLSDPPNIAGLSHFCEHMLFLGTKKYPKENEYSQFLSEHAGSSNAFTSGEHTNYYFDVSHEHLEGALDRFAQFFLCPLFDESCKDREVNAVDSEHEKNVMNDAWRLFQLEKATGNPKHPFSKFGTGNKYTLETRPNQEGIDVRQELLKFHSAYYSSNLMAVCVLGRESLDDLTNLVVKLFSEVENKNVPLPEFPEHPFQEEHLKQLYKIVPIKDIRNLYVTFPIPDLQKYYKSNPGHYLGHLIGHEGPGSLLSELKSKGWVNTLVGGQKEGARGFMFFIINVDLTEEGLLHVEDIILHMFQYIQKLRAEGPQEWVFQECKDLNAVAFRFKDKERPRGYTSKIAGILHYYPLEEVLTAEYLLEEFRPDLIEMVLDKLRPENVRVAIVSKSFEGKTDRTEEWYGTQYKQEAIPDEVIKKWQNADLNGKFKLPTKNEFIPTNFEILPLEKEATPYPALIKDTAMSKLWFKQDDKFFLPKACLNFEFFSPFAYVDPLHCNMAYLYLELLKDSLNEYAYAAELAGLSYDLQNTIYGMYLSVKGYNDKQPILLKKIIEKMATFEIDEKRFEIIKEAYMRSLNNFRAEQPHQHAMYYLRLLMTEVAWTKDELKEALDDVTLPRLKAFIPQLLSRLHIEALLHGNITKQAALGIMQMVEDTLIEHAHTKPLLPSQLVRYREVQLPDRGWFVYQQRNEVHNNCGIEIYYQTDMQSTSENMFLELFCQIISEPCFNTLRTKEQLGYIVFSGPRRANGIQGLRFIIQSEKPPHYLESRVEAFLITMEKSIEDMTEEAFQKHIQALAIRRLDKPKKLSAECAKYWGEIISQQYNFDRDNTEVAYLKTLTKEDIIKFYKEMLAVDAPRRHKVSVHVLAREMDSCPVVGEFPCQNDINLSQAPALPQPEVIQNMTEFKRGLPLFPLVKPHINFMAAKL
# [8] = target: Cytochrome P450 2D6 (Homo sapiens, UniProt P10635);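 also: CYP2D6 member of a cytochrome P450 panel assay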
# [9] = target: Cytochrome P450 2C19 (Homo sapiens, UniProt P33261); test: Cytochrome panel assay with activity outcomes. Panel member name: p450-cyp2c19 Compounds with AC50 equal or less than 10 uM are considered active; type: functional; details: read-out: AC50
# [10] = Counterscreen for IDE inhibitors: Luminescence-based cell-based high throughput dose response assay to identify compounds that are cytotoxic to HEK cells. [Related pubchem assays: 434962 (Primary screen (IDE inhibitors in singlicate)), 449730 (Counterscreen (Cytotoxicity in triplicate)), 435028 (Confirmation (IDE inhibitors in triplicate)) …; type: functional; details: HEK293
# [11] = target: Acyl-homoserine lactone acylase PvdQ (Pseudomonas aeruginosa (strain LESB58), UniProt Q9I194); test: P. aeruginosa PvdQ acylase inhibitors, dose response, biochemical, fluorescence, plate reader and imaging, cherry-picks (AID 493231)
# [12] = target: T4, Zinc finger protein mex-5 (Caenorhabditis elegans, UniProt Q9XUB2); test: MEX-5/TCR-2 RNA interaction inhibitors, dose response, biochemical, C. elegans, fluorescence polarization (AID 1960)
# T4 sequence (Q9XUB2 whole entry): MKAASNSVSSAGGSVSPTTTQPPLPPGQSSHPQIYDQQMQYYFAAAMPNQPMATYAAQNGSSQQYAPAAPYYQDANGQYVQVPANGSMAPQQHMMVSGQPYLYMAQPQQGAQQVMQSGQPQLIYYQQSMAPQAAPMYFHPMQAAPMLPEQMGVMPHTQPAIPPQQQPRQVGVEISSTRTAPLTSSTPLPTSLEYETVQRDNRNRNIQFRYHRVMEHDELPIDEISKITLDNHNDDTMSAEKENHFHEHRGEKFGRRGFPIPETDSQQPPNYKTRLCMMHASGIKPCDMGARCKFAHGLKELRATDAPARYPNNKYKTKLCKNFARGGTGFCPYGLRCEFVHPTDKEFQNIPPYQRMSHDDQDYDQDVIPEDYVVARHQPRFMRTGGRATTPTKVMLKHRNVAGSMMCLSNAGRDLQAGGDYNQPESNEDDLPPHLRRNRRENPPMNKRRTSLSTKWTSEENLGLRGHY
# [13] = target: T5, RNA-binding protein pos-1 (Caenorhabditis elegans, UniProt G5EF15); test: inhibitors of POS-1/mex-3 RNA binding, dose response, biochemical, fluorescence polarization (AID 1964);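 also: purified POS-1 fused to maltose binding protein made in E. coli; potency of compounds blocking POS-1 binding to fluorescent RNA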
# T5 sequence (G5EF15 whole entry): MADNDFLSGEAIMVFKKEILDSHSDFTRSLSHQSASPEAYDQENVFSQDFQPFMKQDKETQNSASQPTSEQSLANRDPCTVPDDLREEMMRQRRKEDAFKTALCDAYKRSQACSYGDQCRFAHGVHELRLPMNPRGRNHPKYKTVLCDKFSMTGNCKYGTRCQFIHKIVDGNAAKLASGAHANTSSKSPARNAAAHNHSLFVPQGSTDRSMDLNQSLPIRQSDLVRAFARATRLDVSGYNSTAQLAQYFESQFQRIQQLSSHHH
# [14] = HepG2 cell cytotoxicity, dose response, cytotoxicity control, plate reader, cherry-pick, antagonist series (AID 743416); type: functional, cell-based
# [15] = A549 cell cytotoxicity, dose response, cytotoxicity control, plate reader, cherry-pick, antagonist series (AID 743412); type: functional, cell-based
# [16] = target: T6, Microphthalmia-associated transcription factor (Homo sapiens, UniProt O75030); test: TRPM1 promoter luciferase signal decrease, dose response, MITF inhibitor project, cell-based, SK-MEL-5, cherry-picked, set 3 (AID 493073); type: functional
# T6 sequence (O75030 whole entry): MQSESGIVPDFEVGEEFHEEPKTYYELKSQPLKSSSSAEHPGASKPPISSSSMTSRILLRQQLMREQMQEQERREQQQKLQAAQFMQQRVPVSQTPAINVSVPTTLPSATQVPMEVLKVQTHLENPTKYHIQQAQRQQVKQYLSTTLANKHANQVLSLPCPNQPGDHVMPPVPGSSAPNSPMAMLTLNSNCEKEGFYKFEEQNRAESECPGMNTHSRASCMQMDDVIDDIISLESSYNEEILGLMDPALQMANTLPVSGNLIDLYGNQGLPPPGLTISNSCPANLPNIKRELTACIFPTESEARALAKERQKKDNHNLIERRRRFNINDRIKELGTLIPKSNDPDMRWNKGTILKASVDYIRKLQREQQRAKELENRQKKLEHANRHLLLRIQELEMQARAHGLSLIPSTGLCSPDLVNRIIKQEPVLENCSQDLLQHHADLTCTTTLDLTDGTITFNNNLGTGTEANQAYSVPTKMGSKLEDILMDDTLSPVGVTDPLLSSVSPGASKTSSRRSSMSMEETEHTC
# [17] = LGR2 antagonists, dose response, cell-based, HEK293, CRE-luciferase reporter, cherry pick, set 2 (AID 743343); type: functional;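 also: transfected cells were stimulated with diluted bursicon conditioned medium after compound addition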
# [18] = HEK293 cell cytotoxicity, dose response, cytotoxicity control, plate reader, cherry-picked samples (AID 743446); type: functional, cell-based
# [19] = MC4R antagonists, dose response, counter-screen for LGR2 antagonist project, cell-based, plate reader, cherry pick (AID 743444); type: functional;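 also: transfected HEK 293 cells stimulated with alpha-MSH peptide; potency of inhibitors of the alpha-MSH evoked signal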
# [20] = target: Beta-galactosidase (Escherichia coli, UniProt Q8VNN2); test: beta-galactosidase enzyme inhibitors and activators, dose response, artefact control for CCR6 antagonist project, biochemical, E. coli enzyme, set 3 (AID 504712); type: functional
# [21] = target: C-C chemokine receptor type 6 (Homo sapiens, UniProt P51684); test: CCR6 receptor antagonists, dose response, cell-based, luminescent beta-arrestin readout (AID 504728); type: functional
# [22] = cells
# [23] = Luminescence-based cell-based high throughput dose response assay to identify activators of the DAF-12 from the parasite S. stercoralis (ssDAF-12).; type: functional
# [24] = target: T7, Oxysterols receptor LXR-beta (Homo sapiens, UniProt P55055); type: functional, cell-based;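 also: Cell-based luminescence dose-response assay of agonist activity at LXR, run as a confirmatory counterscreen to a daf-12 agonist screen; agonist potency from rising luciferase signal of a Gal4-LXR reporter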
# T7 sequence (P55055 whole entry): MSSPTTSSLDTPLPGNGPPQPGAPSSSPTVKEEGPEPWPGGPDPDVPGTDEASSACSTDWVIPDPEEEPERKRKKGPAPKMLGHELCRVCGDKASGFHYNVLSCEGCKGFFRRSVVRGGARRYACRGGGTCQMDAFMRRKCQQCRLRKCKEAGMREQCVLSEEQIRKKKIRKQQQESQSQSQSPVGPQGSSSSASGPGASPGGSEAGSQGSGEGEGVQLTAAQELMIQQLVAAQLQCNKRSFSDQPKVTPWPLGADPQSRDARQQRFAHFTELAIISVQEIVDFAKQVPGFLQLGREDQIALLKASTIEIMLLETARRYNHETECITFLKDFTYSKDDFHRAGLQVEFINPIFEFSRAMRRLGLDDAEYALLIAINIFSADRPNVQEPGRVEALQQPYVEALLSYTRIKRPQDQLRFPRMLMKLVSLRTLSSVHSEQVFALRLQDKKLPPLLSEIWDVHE
# [25] = target: T7, Oxysterols receptor LXR-beta; test: LXR agonists, Gal4 luciferase reporter, dose response, counter-screen for ssDAF-12 agonist project, cell-based, luminescence, HEK293, S. stercoralis campaign (AID 720737); type: functional; details: read-out: IC50 (the source's name)
# Peroxisome proliferator-activated receptor gamma/Nuclear receptor coactivator 2, sequence (P37231 whole entry): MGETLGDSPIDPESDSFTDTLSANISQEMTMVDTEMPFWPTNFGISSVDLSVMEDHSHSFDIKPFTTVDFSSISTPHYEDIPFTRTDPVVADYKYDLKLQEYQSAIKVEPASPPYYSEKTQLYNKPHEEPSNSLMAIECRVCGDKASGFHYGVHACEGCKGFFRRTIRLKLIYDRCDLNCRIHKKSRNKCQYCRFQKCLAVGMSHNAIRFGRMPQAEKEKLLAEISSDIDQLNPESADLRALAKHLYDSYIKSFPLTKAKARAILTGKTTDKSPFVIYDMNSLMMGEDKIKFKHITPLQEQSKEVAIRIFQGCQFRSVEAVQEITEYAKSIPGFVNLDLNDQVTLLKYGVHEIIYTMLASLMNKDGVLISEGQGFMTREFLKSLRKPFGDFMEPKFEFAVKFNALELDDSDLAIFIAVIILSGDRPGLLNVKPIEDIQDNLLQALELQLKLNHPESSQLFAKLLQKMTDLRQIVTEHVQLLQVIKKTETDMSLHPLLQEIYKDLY
# Peroxisome proliferator-activated receptor gamma/Nuclear receptor coactivator 2, sequence (Q15596 whole entry, further chain): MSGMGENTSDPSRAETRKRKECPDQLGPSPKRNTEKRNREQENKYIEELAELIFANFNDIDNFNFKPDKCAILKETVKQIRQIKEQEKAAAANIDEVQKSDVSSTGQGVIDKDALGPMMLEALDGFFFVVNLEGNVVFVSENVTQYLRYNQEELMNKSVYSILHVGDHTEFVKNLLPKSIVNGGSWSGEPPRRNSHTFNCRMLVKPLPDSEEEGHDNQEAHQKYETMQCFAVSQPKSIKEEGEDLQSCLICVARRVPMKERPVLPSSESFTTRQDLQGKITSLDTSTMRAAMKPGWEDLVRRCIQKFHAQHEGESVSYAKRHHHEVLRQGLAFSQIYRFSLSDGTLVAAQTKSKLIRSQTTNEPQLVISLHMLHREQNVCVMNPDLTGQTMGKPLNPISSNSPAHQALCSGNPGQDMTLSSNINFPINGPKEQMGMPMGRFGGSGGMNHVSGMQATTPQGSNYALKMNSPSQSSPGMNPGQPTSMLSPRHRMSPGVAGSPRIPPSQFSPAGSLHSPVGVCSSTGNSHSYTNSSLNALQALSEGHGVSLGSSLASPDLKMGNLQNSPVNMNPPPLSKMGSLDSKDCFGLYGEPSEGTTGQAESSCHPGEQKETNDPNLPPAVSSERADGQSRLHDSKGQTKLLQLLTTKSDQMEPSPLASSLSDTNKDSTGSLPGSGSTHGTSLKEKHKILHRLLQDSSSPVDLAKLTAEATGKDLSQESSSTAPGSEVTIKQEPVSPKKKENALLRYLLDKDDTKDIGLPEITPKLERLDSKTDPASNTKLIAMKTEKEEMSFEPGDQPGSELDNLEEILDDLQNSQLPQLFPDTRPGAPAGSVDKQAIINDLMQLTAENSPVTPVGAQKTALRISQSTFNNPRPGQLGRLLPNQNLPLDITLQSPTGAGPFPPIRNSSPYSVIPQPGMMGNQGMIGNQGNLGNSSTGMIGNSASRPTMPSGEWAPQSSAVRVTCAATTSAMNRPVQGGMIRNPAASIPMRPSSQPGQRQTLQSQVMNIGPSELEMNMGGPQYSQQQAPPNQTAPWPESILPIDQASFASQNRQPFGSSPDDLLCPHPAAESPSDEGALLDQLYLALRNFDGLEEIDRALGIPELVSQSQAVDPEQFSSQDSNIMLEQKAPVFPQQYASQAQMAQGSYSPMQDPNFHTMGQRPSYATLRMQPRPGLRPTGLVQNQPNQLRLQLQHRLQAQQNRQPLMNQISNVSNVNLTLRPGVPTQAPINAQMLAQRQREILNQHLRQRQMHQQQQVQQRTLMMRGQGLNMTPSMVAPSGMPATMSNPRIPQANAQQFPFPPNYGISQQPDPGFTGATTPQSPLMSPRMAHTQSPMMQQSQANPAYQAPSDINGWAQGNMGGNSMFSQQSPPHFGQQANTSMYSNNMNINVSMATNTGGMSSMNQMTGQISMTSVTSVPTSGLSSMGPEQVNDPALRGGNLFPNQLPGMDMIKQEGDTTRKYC
# Peroxisome proliferator-activated receptor gamma/Nuclear receptor coactivator 1, sequence (P37231 whole entry): as the sequence (P37231 whole entry) above
# Peroxisome proliferator-activated receptor gamma/Nuclear receptor coactivator 1, sequence (Q15788 whole entry, further chain): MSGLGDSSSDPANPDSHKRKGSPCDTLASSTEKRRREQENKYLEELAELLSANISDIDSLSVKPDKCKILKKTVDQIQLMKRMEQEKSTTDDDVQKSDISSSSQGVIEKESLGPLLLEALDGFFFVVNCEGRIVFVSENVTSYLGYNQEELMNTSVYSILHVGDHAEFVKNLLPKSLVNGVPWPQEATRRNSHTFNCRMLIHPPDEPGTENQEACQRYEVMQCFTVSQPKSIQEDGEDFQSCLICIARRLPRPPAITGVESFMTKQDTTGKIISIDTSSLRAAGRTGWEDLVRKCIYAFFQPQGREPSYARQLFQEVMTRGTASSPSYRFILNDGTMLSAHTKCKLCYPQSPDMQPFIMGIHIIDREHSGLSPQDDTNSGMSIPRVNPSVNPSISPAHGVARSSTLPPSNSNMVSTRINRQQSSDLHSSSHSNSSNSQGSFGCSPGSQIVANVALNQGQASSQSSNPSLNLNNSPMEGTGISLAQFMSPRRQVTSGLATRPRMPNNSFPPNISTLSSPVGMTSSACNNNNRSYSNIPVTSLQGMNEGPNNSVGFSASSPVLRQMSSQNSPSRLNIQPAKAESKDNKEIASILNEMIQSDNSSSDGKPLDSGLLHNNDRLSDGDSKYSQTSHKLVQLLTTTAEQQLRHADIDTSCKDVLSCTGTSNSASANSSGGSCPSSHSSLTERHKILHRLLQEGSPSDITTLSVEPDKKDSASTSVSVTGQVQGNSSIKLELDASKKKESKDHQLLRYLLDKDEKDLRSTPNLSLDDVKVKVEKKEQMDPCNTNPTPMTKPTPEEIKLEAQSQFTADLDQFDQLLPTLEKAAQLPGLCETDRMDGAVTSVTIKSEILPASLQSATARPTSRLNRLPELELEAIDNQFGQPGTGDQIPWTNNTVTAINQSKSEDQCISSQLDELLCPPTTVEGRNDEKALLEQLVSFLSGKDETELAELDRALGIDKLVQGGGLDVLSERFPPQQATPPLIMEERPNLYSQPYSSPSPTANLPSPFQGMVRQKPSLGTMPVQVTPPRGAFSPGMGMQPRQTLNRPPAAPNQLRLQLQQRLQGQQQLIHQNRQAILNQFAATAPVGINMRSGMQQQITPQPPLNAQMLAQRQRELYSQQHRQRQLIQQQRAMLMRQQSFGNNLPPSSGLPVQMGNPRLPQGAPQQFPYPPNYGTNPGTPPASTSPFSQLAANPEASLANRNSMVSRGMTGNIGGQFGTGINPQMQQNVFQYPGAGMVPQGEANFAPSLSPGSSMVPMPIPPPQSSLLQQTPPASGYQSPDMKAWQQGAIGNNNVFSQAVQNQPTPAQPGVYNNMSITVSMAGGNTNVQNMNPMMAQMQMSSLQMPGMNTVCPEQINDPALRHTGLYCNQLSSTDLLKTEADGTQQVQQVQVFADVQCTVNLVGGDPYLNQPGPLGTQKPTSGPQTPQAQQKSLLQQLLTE
# Acyl-homoserine lactone acylase PvdQ, sequence (Q9I194 24-193 limits assumed): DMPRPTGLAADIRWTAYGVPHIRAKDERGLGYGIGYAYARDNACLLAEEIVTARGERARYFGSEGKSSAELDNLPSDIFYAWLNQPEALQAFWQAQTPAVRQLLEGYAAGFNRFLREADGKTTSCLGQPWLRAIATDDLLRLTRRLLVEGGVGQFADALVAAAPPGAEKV
# Acyl-homoserine lactone acylase PvdQ, sequence (Q9I194 217-762 limits assumed): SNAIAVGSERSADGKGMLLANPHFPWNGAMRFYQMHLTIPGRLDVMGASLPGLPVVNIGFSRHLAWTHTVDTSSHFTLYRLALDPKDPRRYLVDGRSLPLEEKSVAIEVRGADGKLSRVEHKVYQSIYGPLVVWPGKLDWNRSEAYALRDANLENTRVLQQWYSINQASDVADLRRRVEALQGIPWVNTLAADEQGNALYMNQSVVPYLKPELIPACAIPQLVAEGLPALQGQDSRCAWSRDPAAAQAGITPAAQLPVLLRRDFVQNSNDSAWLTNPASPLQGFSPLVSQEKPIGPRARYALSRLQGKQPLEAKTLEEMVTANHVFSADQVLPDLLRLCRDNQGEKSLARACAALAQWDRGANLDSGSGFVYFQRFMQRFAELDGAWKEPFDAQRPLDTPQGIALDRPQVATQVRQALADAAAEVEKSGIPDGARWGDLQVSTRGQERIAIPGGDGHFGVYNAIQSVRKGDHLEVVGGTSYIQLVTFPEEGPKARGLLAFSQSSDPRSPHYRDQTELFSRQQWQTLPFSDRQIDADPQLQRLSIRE
# C-C chemokine receptor type 6, sequence (P51684 whole entry): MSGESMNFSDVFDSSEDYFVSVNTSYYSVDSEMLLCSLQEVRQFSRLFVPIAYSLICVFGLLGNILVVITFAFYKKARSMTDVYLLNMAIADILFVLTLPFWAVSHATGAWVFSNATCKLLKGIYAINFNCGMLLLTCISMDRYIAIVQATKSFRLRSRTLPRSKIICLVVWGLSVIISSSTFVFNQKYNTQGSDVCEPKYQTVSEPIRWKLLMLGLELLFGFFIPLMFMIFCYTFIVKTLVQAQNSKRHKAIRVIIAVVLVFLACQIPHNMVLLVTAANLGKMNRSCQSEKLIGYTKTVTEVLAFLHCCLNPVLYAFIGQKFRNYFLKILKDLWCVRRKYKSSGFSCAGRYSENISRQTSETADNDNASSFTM
smiles,measurement,setting,value
COc1ccc(OCC(=O)Nc2ccc3oc(-c4ccncc4)nc3c2)cc1,EC50,[1],> 100 µM (not active)
COc1ccc(C(N)=NOC(=O)CN(C)S(=O)(=O)c2ccc(C)cc2)cc1,EC50,[2],> 79.4 µM (not active)
same,EC50,[3],> 79.4 µM (not active)
same,EC50,[4],> 79.4 µM (not active)
O=C(O)c1cccc2c1NC(c1ccc([N+](=O)[O-])cc1)C1CC=CC21 (stereo not drawn),EC50,[5],5.41 µM (active)
O=C1C(=Cc2cn(Cc3ccc(Cl)cc3)c3ccccc23)C(=O)c2ccccc21,EC50,[5],14.4 µM (active)
O=C(O)c1cccc(-n2c(/C=C/c3ccccc3)nc3ccccc3c2=O)c1,IC50,[6],12.3 µM (not active)
CC(=O)c1cc(NC(=O)c2ccccc2)c(=O)oc1/C=C/N(C)C,IC50,[7],8.93 µM (active)
same,AC50,[8],0.178 µM (inconclusive)
same,AC50,[9],39.8 µM (inconclusive)
same,IC50,[10],> 55.7 µM (not active)
Cc1ccc(C(C#N)c2ccc(Cl)nn2)cc1 (stereo not drawn),AC50,[11],1.6 µM (active)
COC(=O)c1sccc1NC(=O)c1ccc(Br)s1,EC50,[2],8.67 µM (active)
same,EC50,[3],< 8.82 µM (active)
same,EC50,[4],12.2 µM (not active)
O=C(C1=NN(c2ccccc2)C2C(=O)N(c3ccccc3Cl)C(=O)C12)c1ccccc1 (stereo not drawn),IC50,[7],> 6.21 µM (active)
same,EC50,[12],> 300 µM (inconclusive)
same,EC50,[13],> 300 µM (not active)
same,IC50,[10],> 55.7 µM (not active)
CCOc1ccc(NC(=O)c2ccccn2)cc1,AC50,[14],> 52 µM (inactive)
same,AC50,[15],43.4 µM (active)
same,AC50,[16],4.4 µM (active)
same,AC50,[17],0.999 µM (active)
same,AC50,[18],> 52 µM (inactive)
same,AC50,[11],> 100 µM (inactive)
same,AC50,[19],1.23 µM (active)
N#CC(=C1C=CC(=NO)C(Cl)=C1)c1ccc(Cl)cc1,IC50,[20],> 66.6 µM (inactive)
same,IC50,[21],> 66.6 µM (inactive)
Oc1cccc(/C=N/Nc2cccc3cccnc23)c1,EC50,[22],> 67.5 µM (inactive)
same,IC50,[23],> 67.5 µM (inactive)
same,EC50,[24],> 67.5 µM (inactive)
same,EC50,[25],> 67.5 µM (inactive)
same,EC50,[1],> 100 µM (not active)
